Data as given in patent US8901142B2, “Fused tricyclic compounds as mTOR inhibitors” (Merck Sharp & Dohme Corp., priority 2011, dated 2014).

Key:
[1] = system: mTORC2 (pAKT S473) in PC3 cells; assay: mTOR target engagement assay, immunofluorescent cell-based, mTORC2 activity by reduction of pAKT S473; details: Homo sapiens, PC-3, ninety minutes at 37° C., immunofluorescence
Protocol: (§1) The target engagement of mTOR kinase inhibitors was evaluated using an immunofluorescent cell-based assay. In this assay, inhibition of mTORC1 activity was measured by the reduction in the level of phosphorylated 4E-BP1Thr37/46 (p4E-BP1 Thr37/46), and inhibition of mTORC2 activity was measured by the reduction of phosphorylated AKTSer473 (pAKT S473).
(§2) PC3 cells (prostate tumor cell-line that contains a mutation in the tumor suppressor PTEN, that promotes the phosphorylation and activation of AKT and 4E-BP 1) were used in the immunofluorescence assay. PC3 cells were seeded on 384 well plates (black clear bottom, Matrix #4332) overnight. PC3 cells were then treated with 40 μl of the serially diluted test compounds (in 5% fetal bovine serum, F12 medium containing 0.25% DMSO) for ninety minutes at 37° C. The test compound solution was removed, and the plates were washed gently two times with 25 μl phosphate buffered saline (PBS). The cells were fixed by adding 25 μl of Prefer reagent (from Anatech LTD, Cat#414, a glyoxal fixative for fixing proteins within a cell) for sixty minutes followed by three washes with PBS. 5% Goat serum in PBS/0.3% Triton was used to block non-specific binding (60 minutes).
(§3) The primary antibodies targeting pAKT S473 and p4E-BP1 Thr37/46 were diluted into PBS/0.3% Triton and incubated with the cells overnight at 4° C. The antibodies targeting pAKTS473 (Cat#4085, Cell signaling) and p4E-BP1 Thr37/46 (Cat#2855, Cell signaling) were used at a 1:100 dilution. Plates were washed three times with PBS/0.1% Tween 20 before adding the secondary antibody at a 1:200 dilution. (goat anti-rabbit containing a fluorescent label, Alexa Fluor 488, Cat# A11008, Invitrogen) in PBS/0.3% Triton for 60 minutes.
(§4) Finally, the plates were washed three times with PBS/0.1% Tween 20 and the fluorescent intensity was read using an Analyst HT from Molecular Devices. The fluorescent intensity values from the serially diluted compound treatment group were analyzed using the Xlfit 4 program ([…]) (Formula 205: Y=Bottom+(Top-Bottom)/(1+(IC50/X)^Hillslope) to generate the IC50 value. Where Top is the maximum signal without Compound (+DMSO only) and Bottom represents maximum inhibition. Y is the fluorescence at some compound concentration. The control used to determine the fluorescent intensities for 100% pAKT S473 or 100% phosphorylated p4E-BP1 Thr37/46 were measured from untreated wells that contained only DMSO, instead of test compound.

[2] = system: mTORC1 (p4E-BP1 Thr37/46) in PC3 cells; assay: mTOR target engagement assay, immunofluorescent cell-based, mTORC1 activity by reduction of p4E-BP1 Thr37/46; details: Homo sapiens, PC-3, ninety minutes at 37° C., immunofluorescence
Protocol: as §1, §2, §3, §4

## O=C(CO)N1[C@@H]2CC[C@H]1C[C@H](c1nc3c(-c4ccc(-c5ncc[nH]5)nc4)cnn3c3[nH]ccc13)C2 [Example 5, 1-((1R,3s,5S)-3-(3-(6-(1H-imidazol-2-yl)pyridin-3-yl)-8H-pyrazolo[1,5-a]pyrrolo[3,2-e]pyrimidin-5-yl)-8-azabicyclo[3.2.1]octan-8-yl)-2-hydroxyethanone]
[1]
  IC50: 1 to 100 nM
[2]
  IC50: 100 to 1000 nM

## CC(C)(O)c1ccc(-c2cnn3c2nc([C@@H]2C[C@H]4CC[C@@H](C2)N4C(=O)c2nnc[nH]2)c2cc[nH]c23)cn1 [Example 3, ((1R,3s,5S)-3-(3-(6-(2-hydroxypropan-2-yl)pyridin-3-yl)-8H-pyrazolo[1,5-a]pyrrolo[3,2-e]pyrimidin-5-yl)-8-azabicyclo[3.2.1]octan-8-yl)(1H-1,2,4-triazol-3-yl)methanone]
[1]
  IC50: 100 to 1000 nM
[2]
  IC50: 100 to 1000 nM

## Cc1n[nH]c2c1c([C@@H]1C[C@H]3CC[C@@H](C1)N3C(=O)c1nnc[nH]1)nc1c(-c3ccc(-c4ccccc4)nc3)cnn12 [Example 1, ((1R,3s,5S)-3-(3-methyl-6-(6-phenylpyridin-3-yl)-1H-dipyrazolo[1,5-a:4′,3′-e]pyrimidin-4-yl)-8-azabicyclo[3.2.1]octan-8-yl)(4H-1,2,4-triazol-3-yl)methanone]
[1]
  IC50: 1 to 100 nM
[2]
  IC50: 100 to 1000 nM

## O=C(c1nnc[nH]1)N1[C@@H]2CC[C@H]1C[C@H](c1nc3c(-c4ccc(-c5ncc[nH]5)nc4)cnn3c3[nH]ccc13)C2 [Example 6, ((1R,3s,5S)-3-(3-(6-(1H-imidazol-2-yl)pyridin-3-yl)-8H-pyrazolo[1,5-a]pyrrolo[3,2-e]pyrimidin-5-yl)-8-azabicyclo[3.2.1]octan-8-yl)(4H-1,2,4-triazol-3-yl)methanone]
[1]
  IC50: 1 to 100 nM
[2]
  IC50: 1 to 100 nM

## CC(C)(O)c1ccc(-c2cnn3c2nc([C@@H]2C[C@H]4CC[C@@H](C2)N4C(=O)CO)c2cc[nH]c23)cn1 [Example 4, 2-hydroxy-1-((1R,3s,5S)-3-(3-(6-(2-hydroxypropan-2-yl)pyridin-3-yl)-8H-pyrazolo[1,5-a]pyrrolo[3,2-e]pyrimidin-5-yl)-8-azabicyclo[3.2.1]octan-8-yl)ethanone]
[1]
  IC50: 1000 to 2000 nM
[2]
  IC50: 100 to 1000 nM

## O=C(c1nnc[nH]1)N1[C@@H]2CC[C@H]1C[C@H](c1nc3c(-c4ccc(-c5ccccc5)nc4)cnn3c3[nH]ccc13)C2 [Example 2, ((1R,3s,5S)-3-(3-(6-phenylpyridin-3-yl)-8H-pyrazolo[1,5-a]pyrrolo[3,2-e]pyrimidin-5-yl)-8-azabicyclo[3.2.1]octan-8-yl)(4H-1,2,4-triazol-3-yl)methanone]
[1]
  IC50: 1 to 100 nM
[2]
  IC50: 1 to 100 nM
